In US20130338130A1 (priority 2009, published 2013):
Like-named read-outs stand apart in the source and are kept apart here.

Assays:
[1] = tested on: ATCC strain 43300 Staphylococcus aureus; settings: for recovery after enrichment in Mueller-Hinton broth: 1 cfu detection limit
Procedure: Additional antibiotic was added every 24 hours. The growth periods tested were 24 (see FIG. 4), 48, 72, 96 and 120 hours.
USP<51> Antimicrobial Effectiveness protocol was used as the template experimental paradigm. […] All concentrations were plated out to the 10^−7 dilutions to ascertain cfu/ml. […] Additional antibiotic was added at the initial concentration every 24 hours.
ATCC strain 43300 Staphylococcus aureus was streaked out for isolations. An isolated colony was chosen, streaked again and incubated. Isolate was chosen and then diluted to a McFarland standard of one. The estimated value was then taken to inoculate tubes containing growth media and 12, 30 or 60 μg/ml oxacillin with approximately 10^5 cfu/ml. These tubes were incubated and plated for counting cfu. A clone having no observed log reduction in cfu was selected for the rest of the experiment.
Material was calculated on a 10 ml volume. Sterile oxacillin was added to each experimental condition to a final concentration of 12, 30 or 60 μg/ml antibiotic.
All tubes were then inoculated with a dilution of the selected ATCC strain 43300 Staphylococcus aureus clone giving a final level of colony forming units of 3.3×10^5/ml (log=5.52). The tubes were incubated at 25° C. and mixed periodically. Antibiotic was re-inoculated every 24 hours at the initial concentration to maintain pressure on the organism. Plating was done at 24, 48, 72, and 120 hours. Each condition was plated by diluting 1 ml of growth material into 9 ml of MLB diluent broth. […] This mixture was serial diluted down to 10^−7 with 1 ml placed in triplicate in a sterile petri dish at each dilution point. 20 mls of TSA was added to each dilution, swirled and allowed to solidify. All dilutions were placed in a 35° C. incubator for 24 to 72 hours. Bacterial colonies on each plate were counted and the average taken then changed into log format. Any cfu/ml observed greater than 3.3×10^5 (log=5.5) were recorded as >3.3×10^5.
The tube was then taken out of the experiment and tested for ATCC strain 43300 Staphylococcus growth. The tube was spun down at 5000 rpm for 10 minutes. The supernatant was then decanted into 90 mls of Mueller-Hinton broth with 6 μg/ml oxacillin. This is for enrichment and the recovery of any MRSA cells that may be present whether healthy or stressed. The pellet had 10 mls Mueller-Hinton broth with 6 μg/ml oxacillin added to it to recover any cells that may be present. Both vessels were incubated at 35° C. for 48 hours followed by plating every 24 hours. Each vessel was plated at 10 dilutions to obtain a 1 cfu detection limit.

[2] = tested on: ATCC strain 43300 Staphylococcus aureus; assay: MSM alone, MRSA survival (Example 1); settings: 5-16% MSM alone, no antibiotic, 24 or 48 hour
Procedure: USP<51> Antimicrobial Effectiveness protocol was used as the template experimental paradigm. […] All concentrations were plated out to the 10^−7 dilutions to ascertain cfu/ml.
Material was calculated on a 10 ml volume.
All tubes were inoculated with a dilution of MRSA giving a final level of colony forming units of 2.0×10^5/ml (Log=5.23). The tubes were incubated at 25° C. and mixed periodically. Plating was done at 24 and 48 hours. Each condition was plated by diluting 1 ml of growth material into 9 ml of MLB diluent broth. This mixture was serial diluted down to 10^−7, and 1 ml placed in a sterile petri dish at each dilution point. 20 mls of TSA was added to each dilution, swirled and allowed to solidify. All dilutions were placed in a 35° C. incubator for 24 hours. Bacterial colonies on each plate were counted and colony counts changed into log format. A positive and negative control was ascertained.

For `CS(C)(=O)=O` [MSM, Methylsulfonylmethane], the “survival, Average Log” value ([1]; 30 μg/ml oxacillin + MSM (% in label), 48 hours, listed as 8% MSM) was 3.1 Log, the “survival, Average Log” value ([1]; 30 μg/ml oxacillin + MSM (% in label), 48 hours, listed as 9% MSM) was 2.4 Log and the “survival, Average Log” value ([1]; 30 μg/ml oxacillin + MSM (% in label), 48 hours, listed as 10% MSM) was 2.6 Log. For the same molecule, the “survival, Average Log” value ([1]; 30 μg/ml oxacillin + MSM (% in label), 48 hours, listed as 11% MSM) was 2.4 Log, the “survival, Average Log” value ([1]; 30 μg/ml oxacillin + MSM (% in label), 48 hours, listed as 12% MSM) was 2.6 Log and the “survival, Average Log” value ([1]; 30 μg/ml oxacillin + MSM (% in label), 48 hours, listed as 13% MSM) was 2.5 Log. For the same molecule, the “survival, Average Log” value ([1]; 30 μg/ml oxacillin + MSM (% in label), 48 hours, listed as 14% MSM) was 2.5 Log, the “survival, Average Log” value ([1]; 30 μg/ml oxacillin + MSM (% in label), 48 hours, listed as 15% MSM) was 2.8 Log and the “survival, Average Log” value ([1]; 30 μg/ml oxacillin + MSM (% in label), 48 hours, listed as 16% MSM) was 2.6 Log. For the same molecule, the “survival, Average Log” value ([1]; 30 μg/ml oxacillin + MSM (% in label), 72 hours, listed as 5% MSM) was 5.5 Log, the “survival, Average Log” value ([1]; 30 μg/ml oxacillin + MSM (% in label), 72 hours, listed as 6% MSM) was 5.5 Log and the “survival, Average Log” value ([1]; 30 μg/ml oxacillin + MSM (% in label), 72 hours, listed as 7% MSM) was 4.5 Log. The “survival, Average Log” value ([1]; 30 μg/ml oxacillin + MSM (% in label), 72 hours, listed as 8% MSM) was 5.5 Log, the “survival, Average Log” value ([1]; 30 μg/ml oxacillin + MSM (% in label), 72 hours, listed as 9% MSM) was 2.9 Log and the “survival, Average Log” value ([1]; 30 μg/ml oxacillin + MSM (% in label), 72 hours, listed as 10% MSM) was 3.9 Log. The “survival, Average Log” value ([1]; 30 μg/ml oxacillin + MSM (% in label), 72 hours, listed as 11% MSM) was 3.2 Log, the “survival, Average Log” value ([1]; 30 μg/ml oxacillin + MSM (% in label), 72 hours, listed as 12% MSM) was 2.6 Log and the “survival, Average Log” value ([1]; 30 μg/ml oxacillin + MSM (% in label), 72 hours, listed as 13% MSM) was 1.8 Log. For the same molecule, the “survival, Average Log” value ([1]; 30 μg/ml oxacillin + MSM (% in label), 72 hours, listed as 14% MSM) was 2.2 Log, the “survival, Average Log” value ([1]; 30 μg/ml oxacillin + MSM (% in label), 72 hours, listed as 15% MSM) was 2.4 Log and the “survival, Average Log” value ([1]; 30 μg/ml oxacillin + MSM (% in label), 72 hours, listed as 16% MSM) was 1.9 Log. For the same molecule, the “recovery after enrichment in Mueller-Hinton broth” value (“recovery after enrichment” for short) ([1]; 30 μg/ml oxacillin, 120 hours) was “total kill”, the “survival, Average Log” value ([1]; 60 μg/ml oxacillin + MSM (% in label), 24 hours, listed as 5% MSM) was 2.54 Log and the “survival, Average Log” value ([1]; 60 μg/ml oxacillin + MSM (% in label), 24 hours, listed as 6% MSM) was 2.38 Log. For the same molecule, the “survival, Average Log” value ([1]; 60 μg/ml oxacillin + MSM (% in label), 24 hours, listed as 7% MSM) was 2.34 Log, the “survival, Average Log” value ([1]; 60 μg/ml oxacillin + MSM (% in label), 24 hours, listed as 8% MSM) was 2.67 Log and the “survival, Average Log” value ([1]; 60 μg/ml oxacillin + MSM (% in label), 24 hours, listed as 9% MSM) was 2.50 Log. For the same molecule, the “survival, Average Log” value ([1]; 60 μg/ml oxacillin + MSM (% in label), 24 hours, listed as 10% MSM) was 2.63 Log, the “survival, Average Log” value ([1]; 60 μg/ml oxacillin + MSM (% in label), 24 hours, listed as 11% MSM) was 2.83 Log and the “survival, Average Log” value ([1]; 60 μg/ml oxacillin + MSM (% in label), 24 hours, listed as 12% MSM) was 2.86 Log. For the same molecule, the “survival, Average Log” value ([1]; 60 μg/ml oxacillin + MSM (% in label), 24 hours, listed as 13% MSM) was 2.80 Log, the “survival, Average Log” value ([1]; 60 μg/ml oxacillin + MSM (% in label), 24 hours, listed as 14% MSM) was 2.03 Log and the “survival, Average Log” value ([1]; 60 μg/ml oxacillin + MSM (% in label), 24 hours, listed as 15% MSM) was 3.81 Log. The “survival, Average Log” value ([1]; 60 μg/ml oxacillin + MSM (% in label), 24 hours, listed as 16% MSM) was 3.83 Log, the “survival, Average Log” value ([1]; 60 μg/ml oxacillin + MSM (% in label), 48 hours, listed as 5% MSM) was 3.5 Log and the “survival, Average Log” value ([1]; 60 μg/ml oxacillin + MSM (% in label), 48 hours, listed as 6% MSM) was 1.8 Log. For the same molecule, the “survival, Average Log” value ([1]; 60 μg/ml oxacillin + MSM (% in label), 48 hours, listed as 7% MSM) was 4.0 Log, the “survival, Average Log” value ([1]; 60 μg/ml oxacillin + MSM (% in label), 48 hours, listed as 8% MSM) was 2.8 Log and the “survival, Average Log” value ([1]; 60 μg/ml oxacillin + MSM (% in label), 48 hours, listed as 9% MSM) was 2.2 Log. The “survival, Average Log” value ([1]; 60 μg/ml oxacillin + MSM (% in label), 48 hours, listed as 10% MSM) was 2.2 Log, the “survival, Average Log” value ([1]; 60 μg/ml oxacillin + MSM (% in label), 48 hours, listed as 11% MSM) was 2.1 Log and the “survival, Average Log” value ([1]; 60 μg/ml oxacillin + MSM (% in label), 48 hours, listed as 12% MSM) was 2.0 Log. For the same molecule, the “survival, Average Log” value ([1]; 60 μg/ml oxacillin + MSM (% in label), 48 hours, listed as 13% MSM) was 1.7 Log, the “survival, Average Log” value ([1]; 60 μg/ml oxacillin + MSM (% in label), 48 hours, listed as 14% MSM) was 2.2 Log and the “survival, Average Log” value ([1]; 60 μg/ml oxacillin + MSM (% in label), 48 hours, listed as 15% MSM) was 2.1 Log. For the same molecule, the “survival, Average Log” value ([1]; 60 μg/ml oxacillin + MSM (% in label), 48 hours, listed as 16% MSM) was 1.9 Log, the “survival, Average Log” value ([1]; 60 μg/ml oxacillin + MSM (% in label), 72 hours, listed as 11% MSM) was 1 Log and the “survival, Average Log” value ([1]; 60 μg/ml oxacillin + MSM (% in label), 72 hours, listed as 12% MSM) was 2.4 Log. The “survival, Average Log” value ([1]; 60 μg/ml oxacillin + MSM (% in label), 72 hours, listed as 13% MSM) was 1 Log, the “survival, Average Log” value ([1]; 60 μg/ml oxacillin + MSM (% in label), 72 hours, listed as 14% MSM) was 1.5 Log and the “survival, Average Log” value ([1]; 60 μg/ml oxacillin + MSM (% in label), 72 hours, listed as 16% MSM) was 1.8 Log. The “log reduction in the number of cfu/ml” value ([1]; 60 μg/ml oxacillin, 24 hours) was 3.5 log, the “recovery after enrichment” value ([1]; 60 μg/ml oxacillin, 72 hours) was “total kill” and the “recovery after enrichment” value ([1]; 60 μg/ml oxacillin, 96 hours) was “total kill”. For the same molecule, the “recovery after enrichment” value ([1]; 60 μg/ml oxacillin, 120 hours) was “total kill”, the growth ([1]; positive 5%, 10%, and 16% MSM controls, no antibiotic, 24 hours) was “signs of turbid growth” and the effect on survival [2] was “none of the concentrations of MSM tested had any effect on the survival”.
